Source: patent publication US7902373B2 (Pfizer Inc, priority 2006, dated 2011)

What follows are compounds tested against human recombinant H-PGDS (Homo sapiens, UniProt O60760) (assay: Fluorescence intensity h-PGDS TBA enzyme assay). Conditions: Examples up to 622 (and 3a, 3b).
Type: biochemical

Sequence of human recombinant H-PGDS (O60760 whole entry): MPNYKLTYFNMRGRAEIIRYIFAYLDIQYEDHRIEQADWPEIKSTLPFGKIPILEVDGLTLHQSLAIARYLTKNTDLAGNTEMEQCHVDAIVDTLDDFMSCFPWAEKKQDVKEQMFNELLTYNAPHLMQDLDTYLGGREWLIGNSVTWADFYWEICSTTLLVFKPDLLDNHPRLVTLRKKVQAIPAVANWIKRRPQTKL

SMILES | IC50
Cc1nccc(CN2CCC(NC(=O)c3ccc(-c4cccc(F)c4)nc3)CC2)n1 [Example 389, 6-(3-Fluorophenyl)-N-{1-[(2-methylpyrmidin-4-yl)methyl]piperidin-4-yl}nicotinamide] | 2.23 nM
CN(c1nccc(CN2CCC(NC(=O)c3ccc(-c4cccc(F)c4)nc3)CC2)n1)C1CCCCC1 [Example 390, N-[1-({2-[Cyclohexyl(methyl)amino]pyrimidin-4-yl}methyl)piperidin-4-yl]-6-(3-fluorophenyl)nicotinamide] | 11.6 nM
COCCCNc1nccc(CN2CCC(NC(=O)c3ccc(-c4cccc(F)c4)nc3)CC2)n1 [Example 391, 6-(3-Fluorophenyl)-N-[1-({2-[(3-methoxypropyl)amino]pyrimidin-4-yl}methyl)piperidin-4-yl]nicotinamide] | 1.2 nM
CN(C)c1nccc(CN2CCC(NC(=O)c3ccc(-c4cccc(F)c4)nc3)CC2)n1 [Example 392, N-(1-{[2-(Dimethylamino)pyrimidin-4-yl]methyl}piperidin-4-yl)-6-(3-fluorophenyl)nicotinamide] | 0.849 nM
O=C(NC1CCN(Cc2ccnc(NC3CC3)n2)CC1)c1ccc(-c2cccc(F)c2)nc1 [Example 393, N-(1-{[2-(Cyclopropylamino)pyrimidin-4-yl]methyl}piperidin-4-yl)-6-(3-fluorophenyl)nicotinamide] | 1.18 nM
O=C(NC1CCN(Cc2ccn(CCc3ccccc3)n2)CC1)c1ccc(-c2cccc(F)c2)nc1 [Example 394, 6-(3-Fluorophenyl)-N-(1-{[1-(2-phenylethyl)-1H-pyrazol-3-yl]methyl}piperidin-4-yl)nicotinamide] | 0.379 nM
O=C(NC1CCN(Cc2ccnn2CCc2ccccc2)CC1)c1ccc(-c2cccc(F)c2)nc1 [Example 395, 6-(3-Fluorophenyl)-N-(1-{[1-(2-phenylethyl)-1H-pyrazol-5-yl]methyl}piperidin-4-yl)nicotinamide] | 1.43 nM
Cn1ccc(CN2CCC(NC(=O)c3ccc(-c4cccc(F)c4)nc3)CC2)n1 [Example 396, 6-(3-Fluorophenyl)-N-{1-[(1-methyl-1H-pyrazol-3-yl)methyl]piperidin-4-yl}nicotinamide] | 1.45 nM
O=C(NC1CCN(Cc2ccnc(N3CCOCC3)n2)CC1)c1ccc(-c2cccc(F)c2)nc1 [Example 397, 6-(3-Fluorophenyl)-N-{1-[(2-morpholin-4-ylpyrimidin-4-yl)methyl]piperidin-4-yl}nicotinamide] | 1.47 nM
CCN(C)c1ncc2c(n1)CCC(CN1CCC(NC(=O)c3ccc(-c4cccc(F)c4)nc3)CC1)C2 (stereo not shown) [Example 398, N-[1-({2-[Ethyl(methyl)amino]-5,6,7,8-tetrahydroquinazolin-6-yl}methyl)piperidin-4-yl]-6-(3-fluorophenyl)nicotinamide] | 8.56 nM
O=C(NC1CCN(CC2CCc3nc(CC4CC4)ncc3C2)CC1)c1ccc(-c2cccc(F)c2)nc1 (stereo not shown) [Example 399, N-(1-{[2-(cyclopropylmethyl)-5,6,7,8-tetrahydroquinazolin-6-yl]methyl}piperidin-4-yl)-6-(3-fluorophenyl)nicotinamide] | 1.02 nM
CC(C)c1ncc2c(n1)CCC(CN1CCC(NC(=O)c3ccc(-c4cccc(F)c4)nc3)CC1)C2 (stereo not shown) [Example 400, 6-(3-Fluorophenyl)-N-{1-[(2-isopropyl-5,6,7,8-tetrahydroquinazolin-6-yl)methyl]piperidin-4-yl}nicotinamide] | 1.04 nM
Cc1ncc2c(n1)CCC(CN1CCC(NC(=O)c3ccc(-c4cccc(F)c4)nc3)CC1)C2 (stereo not shown) [Example 401, 6-(3-Fluorophenyl)-N-{1-[(2-methyl-5,6,7,8-tetrahydroquinazolin-6-yl)methyl]piperidin-4-yl}nicotinamide] | 0.574 nM
CC(C)(C)c1ncc2c(n1)CCC(CN1CCC(NC(=O)c3ccc(-c4cccc(F)c4)nc3)CC1)C2 (stereo not shown) [Example 402, N-{1-[(2-tert-Butyl-5,6,7,8-tetrahydroquinazolin-6-yl)methyl]piperidin-4-yl}-6-(3-fluorophenyl)nicotinamide] | 1.64 nM
CCCc1ncc2c(n1)CCC(CN1CCC(NC(=O)c3ccc(-c4cccc(F)c4)nc3)CC1)C2 (stereo not shown) [Example 403, 6-(3-Fluorophenyl)-N-{1-[(2-propyl-5,6,7,8-tetrahydroquinazolin-6-yl)methyl]piperidin-4-yl}nicotinamide] | 0.121 nM
COCCOc1c(CN2CCC(NC(=O)c3ccc(-c4cccc(F)c4)nc3)CC2)cccc1OC [Example 404, 6-(3-Fluorophenyl)-N-{1-[3-methoxy-2-(2-methoxyethoxy)benzyl]piperidin-4-yl}nicotinamide] | 0.469 nM
COc1cc(CN2CCC(NC(=O)c3ccc(-c4cccc(F)c4)nc3)CC2)ccc1OCC(F)F [Example 405, N-{1-[(2,2-Difluoroethoxy)-3-methoxybenzyl]piperidin-4-yl}-6-(3-fluorophenyl)nicotinamide] | 0.483 nM
O=C(NC1CCN(Cc2cn3ccccc3n2)CC1)c1ccc(-c2cccc(F)c2)nc1 [Example 406, 6-(3-Fluorophenyl)-N-[1-(imidazo[1,2-a]pyridin-2-ylmethyl)piperidin-4-yl]nicotinamide] | 2.36 nM
O=C(NC1CCN(Cc2nc(-c3ccc(F)cc3)cs2)CC1)c1ccc(-c2cccc(F)c2)nc1 [Example 407, 6-(3-Fluorophenyl)-N-(1-{[4-(4-fluorophenyl)-1,3-thiazol-2-yl]methyl}piperidin-4-yl)nicotinamide] | 5.4 nM

SMILES | IC50
O=C(NC1CCN(Cc2nc(-c3cccc(F)c3)cs2)CC1)c1ccc(-c2cccc(F)c2)nc1 [Example 408, 6-(3-Fluorophenyl)-N-(1-{[4-(3-fluorophenyl)-1,3-thiazol-2-yl]methyl}piperidin-4-yl)nicotinamide] | 61.9 nM
COc1cccc(-c2csc(CN3CCC(NC(=O)c4ccc(-c5cccc(F)c5)nc4)CC3)n2)c1 [Example 409, 6-(3-Fluorophenyl)-N-(1-{[4-(3-methoxyphenyl)-1,3-thiazol-2-yl]methyl}piperidin-4-yl)nicotinamide] | 2.25 nM
N#Cc1cccc(-c2csc(CN3CCC(NC(=O)c4ccc(-c5cccc(F)c5)nc4)CC3)n2)c1 [Example 410, N-(1-{[4-(3-Cyanophenyl)-1,3-thiazol-2-yl]methyl}piperidin-4-yl)-6-(3-fluorophenyl)nicotinamide] | 16.3 nM
CCc1csc(CN2CCC(NC(=O)c3ccc(-c4cccc(F)c4)nc3)CC2)n1 [Example 411, N-{1-[(4-Ethyl-1,3-thiazol-2-yl)methyl]piperidin-4-yl}-6-(3-fluorophenyl)nicotinamide] | 1.36 nM
Cc1sc(CN2CCC(NC(=O)c3ccc(-c4cccc(F)c4)nc3)CC2)nc1-c1ccccc1 [Example 412, 6-(3-Fluorophenyl)-N-{1-[(5-methyl-4-phenyl-13-thiazol-2-yl)methyl]piperidin-4-yl}nicotinamide] | 4.12 nM
O=C(NC1CCN(Cc2nc3ccccn3c2Br)CC1)c1ccc(-c2cccc(F)c2)nc1 [Example 414, N-{1-[(3-Bromoimidazo[1,2-a]pyridin-2-yl)methyl]piperidin-4-yl}-6-(3-fluorophenyl)nicotinamide] | 0.35 nM
Cn1c(CN2CCC(NC(=O)c3ccc(-c4cccc(F)c4)nc3)CC2)nc2cccnc21 [Example 415, 6-(3-Fluorophenyl)-N-{1-[(3-methyl-3H-imidazo[4,5-b]pyridin-2-yl)methyl]piperidin-4-yl}nicotinamide] | 1.96 nM
CC(C)(C)OC(=O)NC1CCC(CN2CCC(NC(=O)c3ccc(-c4cccc(F)c4)nc3)CC2)CC1 (stereo not shown) [Example 416, tert-Butyl (4-{[4-({[6-(3-fluorophenyl)pyridin-3-yl]carbonyl}amino)piperidin-1-yl]methyl}cyclohexyl)carbamate] | 1.68 nM
CN(C)CCCOc1cccc(CN2CCC(NC(=O)c3ccc(-c4cccc(F)c4)nc3)CC2)c1 [Example 417, N-(1-{3-[3-(Dimethylamino)propoxy]benzyl}piperidin-4-yl)-6-(3-fluorophenyl)nicotinamide] | 1.1 nM
O=C(NC1CCN(Cc2cccc3c2OCCO3)CC1)c1ccc(-c2cccc(F)c2)nc1 [Example 418, N-[1-(2,3-Dihydro-1,4-benzodioxin-5-ylmethyl)piperidin-4-yl]-6-(3-fluorophenyl)nicotinamide] | 0.427 nM
CC(C)(O)c1ccc(CN2CCC(NC(=O)c3ccc(-c4cccc(F)c4)nc3)CC2)c(F)c1 [Example 419, N-[1-(2-Fluoro-4-(1-hydroxy-1-methylethyl)benzyl]piperidin-4-yl}-6-(3-fluorophenyl)nicotinamide] | 1.03 nM
COCCn1c(CN2CCC(NC(=O)c3ccc(-c4cccc(F)c4)nc3)CC2)nc2ccccc21 [Example 420, 6-(3-Fluorophenyl)-N-(1-{[1-(2-methoxyethyl)-1H-benzimidazol-2-yl]methyl}piperidin-4-yl)nicotinamide] | 3.4 nM
Cn1c(CN2CCC(NC(=O)c3ccc(-c4cccc(F)c4)nc3)CC2)nc2ncccc21 [Example 421, 6-(3-Fluorophenyl)-N-{1-[(1-methyl-1H-imidazo[4,5-b]pyridin-2-yl)methyl]piperidin-4-yl}nicotinamide] | 1.34 nM
O=C(NC1CCN(Cc2nc3ccccc3n2C2CC2)CC1)c1ccc(-c2cccc(F)c2)nc1 [Example 422, N-{1-[(1-Cyclopropyl-1H-benzimidazol-2-yl)methyl]piperidin-4-yl}-6-(3-fluorophenyl)nicotinamide] | 2.53 nM
O=C(NC1CCN(Cc2nc3ccccc3n2CCF)CC1)c1ccc(-c2cccc(F)c2)nc1 [Example 423] | 0.931 nM
O=C(NC1CCN(Cc2nc3ccccc3n2CF)CC1)c1ccc(-c2cccc(F)c2)nc1 [Example 424] | 1.3 nM
COc1ccc(CN2CCC(NC(=O)c3ccc(-c4cccc(F)c4)nc3)CC2)cc1OCC(F)F [Example 425, N-{1-[3-(2,2-Difluoroethyoxy)-4-methoxybenzyl]piperidin-4-yl}-6-(3-fluorophenyl)nicotinamide] | 2.81 nM
O=C(NC1CCN(Cc2coc(-c3ccccc3)n2)CC1)c1ccc(-c2cccc(F)c2)nc1 [Example 426, 6-(3-Fluorophenyl)-N-{1-[(2-phenyl-1,3-oxazol-4-yl)methyl]piperidin-4-yl}nicotinamide] | 5.53 nM
